Columns and labels:
[1] = system: A4 serous ovarian adenocarcinoma xenografts; assay: Flow cytometric resolution of residual tumour composition (proliferative hierarchy, ploidy, cell cycle; 18 fractions) after therapy; assay type: in vivo, mice; conditions: for drug sensitive tumour populations (cell targets): individual treatments, grid of FIG. 9
Experimental: FIG. 8 represents data discussed in Example 3. a. Schematic of paclitaxel administration regime; b. Frequency (±SEM) of tumor fractions based on proliferative hierarchy, ploidy and cell cycle analysis in control and paclitaxel treated where populations 1-18 are as depicted in FIG. 6b, inset indicates frequency of cycling CSCs, 18a-PKH^hi Eu G0, 18b-PKH^hi Eu G1,18c-PKH^hi Eu S, 18d-PKH^hi Eu G2/M, 18e-PKW^hi Aneu G0, 18f-PKH^hi Aneu G1, 18g-PKH^hiAneu S, 18h-PKW^hi Aneu G2/M;*−P<0.05; **−P<0.001; ***−P<0.0001.
FIG. 9 represents the efficacy of various drug regimes through resolution of residual tumor composition after therapy in comparison with a naïve (untreated) tumor for following drug regimes—Pac ST (paclitaxel short-term: 3 doses—48 h intervals—1 week recovery), Pac LT (paclitaxel long-term, 2 cycles of ST regime); Gem ST (gemcitabine short-term, 3 doses—36 h intervals—36 h recovery), Gem LT (gemcitabine long-term, 5 doses—36 h intervals—36 h recovery); 5AzadC (3 doses—48 h intervals—1 week recovery); mAbX (6 doses of an uncharacterised antibody developed in the Bapat lab—48 h intervals—48 h recovery); Gem+mAbX ST combination therapy (3 doses of each drug—48 h intervals—48 h recovery), Gem+mAbX LT combination therapy (2 cycles each comprising of 3 doses of each drug—48 h intervals—1 week recovery); triple drug combination of gemcitabine, mAbX and 5AzadC LT (6 therapeutic cycles, each comprising of 3 doses of each drug at 48 h intervals and 1 week recovery); populations 1-18 and 18a-18h are as defined in FIGS. 6b and 8 respectively.
Standard techniques are used in the process that is illustrative rather than limiting; other common methods are acceptable in the practice of this invention. Tumor tissues were rinsed several times with phosphate buffered saline (PBS) containing antibiotic and/or anti-fungal agents, finely minced and suspended in basal media supplemented with cell dissociation agent(s) with intermittent pipetting to loosen cell aggregates. Various combinations of dissociation agents can be used depending on the tumor type and appearance and including but not being limited to EDTA, EGTA, cocktails of enzymes including trypsin, dispases, collagenases, DNAse, and the like. On dispersion of tumor cell aggregates, enzymatic activity is usually terminated by addition of serum, cells pelleted by centrifugation and washed several times with basal medium and filtered through cell strainers to obtain a single cell suspension. Cell lines are harvested as per established guidelines to obtain a single cell suspension. […] Labeled cells are xenografted in immunocompromised mice, which could be either nude, SCID, Beige/SCID, NOD/SCID, Rag-/Rag-, humanised mice models, or any known experimental xenograft animal model. Control tumors were concurrently generated using unlabeled cells. Xenografts were harvested as per animal experimental protocols and digested to generate single cell suspension from which the different sub-populations were resolved through flow cytometry.
Basic cell parameters FSC and SSC were adjusted with ND filter 1.5/2 with appropriate FSC and SSC thresholds. Cell debris was eliminated based on low FSC—low SSC, doublets using Area—width parameters and RBCs based on nuclear Propidium iodide (PI) staining. PI excitation/emission maxima are at 535/617 nm (PE channel of blue laser used for analysis). Freshly labeled cells are used to set the gates for VMF^hi cells, while TDSCS from unlabeled tumors was used in order to set the gates for VMF^neg cells. Other fluorophores including Hoechst (UV laser), Pyronin Y (PE channel of blue laser), APC (red laser) and others can be incorporated into this scheme based on their compatibility and resolution capabilities of the flow equipment used for data acquisition and/or sorting as per experimental requirements.
G0/G1, S and G2/M (as illustrated in FIG. 3) provides information regarding the proliferative capability of a tumor. […]

[2] = system: A4 serous ovarian adenocarcinoma xenografts; assay: Tumour volume of A4 xenografts after drug regime; assay type: in vivo, mice; conditions: paclitaxel i.p. 25 mg/kg body weight; at the end of the regime
[3] = paclitaxel treated vs control, FIG. 8b

Row | Structure (SMILES) | drug sensitive tumour populations (cell targets) [1] | reduction in tumor volumes [2] [%] | CSC re-entry into the cell cycle (cycling populations within PKH^hi fraction) ([1]; after therapy vs naive tumor, FIG. 8b inset, FIG. 9) | frequency of aneuploid progenitor cells ([1]; following paclitaxel treatment vs control) | PKH^hi (CSC) fraction [1, 3] | PKH^neg fraction [1, 3]
1 | Nc1ncn([C@H]2C[C@H](O)[C@@H](CO)O2)c(=O)n1 [5 AzadC, 5AzadC] | effective against aneuploid fractions |  |  |  |  | 
2 | Nc1ccn([C@@H]2O[C@H](CO)[C@@H](O)C2(F)F)c(=O)n1 [gemcitabine] | effective in short-term sensitization of all populations within the PKH^neg fraction |  |  |  |  | 
3 | CC(=O)O[C@H]1C(=O)[C@@]2(C)[C@H]([C@H](OC(=O)c3ccccc3)[C@]3(O)C[C@H](OC(=O)[C@H](O)[C@@H](NC(=O)c4ccccc4)c4ccccc4)C(C)=C1C3(C)C)[C@]1(OC(C)=O)CO[C@@H]1C[C@@H]2O [paclitaxel] |  | 50 | presence of cycling populations that have undergone less than 3-4 doublings within the PKH^hi fraction | Increased frequency of aneuploid progenitor cells | enhanced PKH^hi (CSC) fraction | decreased PKH^neg fraction
